Reference: US20190192524A1, “Modulators of Caspase-6” (The University of British Columbia, priority 2014, published 2019)

Experiments:
[1] = molecular target: T1, human caspase 6 lacking the pro-domain (Homo sapiens, UniProt P55212); test: Intracellular Htt cleavage by Western blot in co-transfected COS-7 cells; format: cell-based; design: DDK-tag (C); expressed in transfected cells; host or cells: COS-7
T1 sequence (P55212 with tags, fused parts or gaps): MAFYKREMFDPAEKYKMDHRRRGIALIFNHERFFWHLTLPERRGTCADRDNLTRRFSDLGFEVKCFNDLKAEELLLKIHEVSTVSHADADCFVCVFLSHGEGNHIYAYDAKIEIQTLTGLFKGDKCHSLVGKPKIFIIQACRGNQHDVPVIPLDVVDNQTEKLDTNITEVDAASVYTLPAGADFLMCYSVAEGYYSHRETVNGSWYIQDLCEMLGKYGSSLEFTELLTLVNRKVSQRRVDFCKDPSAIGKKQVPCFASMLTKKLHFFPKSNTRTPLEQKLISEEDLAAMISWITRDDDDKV
Protocol: COS-7 cells were co-transfected with the 4c htt fragment and the human caspase-6 lacking the pro-domain which leads to fast autoactivation of the caspase-6 enzyme and the generation of the 586 aa Htt cleavage fragment. The co-transfected cells were exposed to either 10 uM of the PG3d compound, 3 uM of the Q-VD-Oph pan-caspase inhibitor or were left untreated. Non-transfected cells were included as a negative control and the purified 586 aa Htt fragment was included as a positive control. Cell lysates were subjected to Western blotting and the 586AA fragment generated intracellularly was detected with Htt antibody 2166 (Millipore). Caspase-6 expression and activation was assessed by Western blotting using antibody HD91 (Ehrnhoefer et al, HMG, 2014. 23(3):717-29).
COS-7 cells were co-transfected with the 4c htt fragment and the human caspase-6 lacking the pro-domain which leads to fast autoactivation of the caspase-6 enzyme and the generation of the 586 aa Htt cleavage fragment. […] Non-transfected cells were included as a negative control and the purified 586 aa Htt fragment was included as a positive control. […] The cell lysates were also assayed for the levels of active caspase 6 enzyme as shown in the lower panel of FIG. 5B.

[2] = molecular target: T1, human caspase 6 lacking the pro-domain; test: Lamin A cleavage in HEK 293 cells overexpressing caspase-6 (Mesoscale ELISA); format: cell-based; design: The transfected DNA encodes amino acids 24-293 of the human caspase 6 enzyme with a C-terminal DDK tag; DDK-tag (C); expressed in transfected cells; host or cells: HEK 293; conditions: 24 hr incubation; cleaved lamin A quantified; read-out: HEK intracellular IC50
Protocol: HEK 293 cells were grown in DMEM supplemented with 10% fetal bovine serum, 1%/penicillin/streptomycin and 0.5% glutamine. Transfections were performed using the Fugene reagent (Roche) according to manufacturer's instructions. The transfected DNA encodes amino acids 24-293 of the human caspase 6 enzyme with a C-terminal DDK tag under the control of a CMV promoter (vector pCMVSport6) (SEQ ID NO: 2). The transfected HEK 293 were used to measure the intracellular activity of caspase-6 as evidenced by cleavage of the lamin substrate (described below).
The quantitative assessment of intracellular lamin cleavage in caspase-6 transfected HEK 293 cells was done as described previously (Ehrnhoefer et al. PLoS One, 2011. 6(11):e27680) Briefly, HEK 293 cell lysates were adjusted to 1 μg protein/μl in lysis buffer, diluted to 0.2 μg/μl in PBS and 5 μl were added to a Multi-Array high-bind 96 well plate (Mesoscale discovery). After incubation at room temperature for 1 h, the wells were blocked by adding 150 μl 5% BSA in PBS, followed by further incubation at room temperature for 1 h. Wells were then washed 3× with 150 μl PBS+0.05% Tween, and 25 μl antibody mix was added (Cell signaling #2036 at 1:100 dilution, Mesoscale discovery goat-anti-rabbit sulfo-tag at 1:500 dilution in PBS with 1% BSA). After lh incubation at room temperature, the wells were washed 3× with 150 μl PBS+0.05% Tween, and 150 μl/well 2× reading reagent (Mesoscale discovery) was added. The plate was read on a Sector imager 6000 (Mesoscale discovery).
The PG3 analog compounds were also tested for their ability to inhibit caspase-6 within cultured cells. HEK 293 cells were transfected with human caspase 6 lacking the pro-domain and were incubated with increasing concentrations of the PG3 analogs. After a 24 hr incubation, the excess compound was washed away, the cells were lysed and the amount of cleaved lamin A protein was quantified by the Mesoscale ELISA method.

O=c1oc(C#Cc2ccccc2)nc(O)c1Cc1ccccc1 [PG-3d, 5-Benzyl-4-hydroxy-2-(phenylethynyl)-6H-1,3-oxazin-6-one]
level of active caspase 6 enzyme ([1]; 10 uM compound): decreased amount of active enzyme | generation of the 586 aa Htt cleavage fragment ([1]; 10 uM compound vs untreated cells): significant reduction | IC50 [2]: 2.6 µM
